The text below walks through data of patent US5206254A, “β-carbonyl-carboxyamides of 1,3-thiazolidines” (Boehringer Mannheim Italia S.p.A., priority 1988, dated 1993).

In series [1] the test system is airways hyperreactivity, pulmonary inflation pressure (PIP). The experiment in a line: Airway hyperreactivity (PIP increase after autacoid challenge) after tobacco smoke exposure. The format is in vivo, guinea pig (male). To be noted: compounds: oral 20-60, i.v. 0.25-5, s.c. 2-15 mg/Kg; 6 MPHE 10-50 mg/Kg i.m.; DSCG 20-100 mg/Kg i.m.; salbutamol 0.5 mg/Kg i.v. As for the experimental part:
In order to show this surprising pharmacological property, the compounds of the invention were tested in a bronchial hyperreactivity animal model recently developed (see Omini C. et al., 23rd Ann. Med: S.E.P.C.R., Athens 20-24th June 1988, Abstract 15S Eur. J. Resp. Dis. in press).
The airways hyperreactivity is measured as abnormal increase of the pulmonary inflation pressure (PIP) caused by the exacerbate bronchconstrictive response that follows to an autocoid challenge after active forced tobacco smoke exposure for a 10 minutes period. The abnormal PIP increase is compared with the PIP increase observed, in the same animal, before tobacco smoke, and after autacoids challenge. Male guinea pigs (400-450 g b.w.) anaesthetized with ethylurethane and pancuronium bromide were used; the recording of PIP is performed in accordance with Konzett and Rossler methods (Naumm. Schiedeberg Arch. Exp. Path/Pharmacol. 195, 71, 1940). To evidentiate such bronchial smooth muscle hyperreactivity suitable autocoids are acetylcholine, histamine, serotonine, bradykinins.
Male guinea pigs (400-450 g) are anaesthetized with ethylurethane (i.p.) and pancuronium bromide (i.v.): the trachea is cannulated and the lungs are ventilated at constant volume by connection with "Rodent respirator" Basile apparatus mod. 7025. The pulmonary inflation pressure (PIP) is measured by connection to a side-warm of the tracheal cannula of a Bell and Howell pressure transducer (mod. P 17570) that is connected to a Beckmann (mod. R 611) dynograph. The right jugular vein is catheterized for i.v. injection of autacoids and drugs. The pharmacological experiment starts with the treatment of the animal with the autocoids (for example acetylcholine by i.v. route in the interval 2.5-10 mcg/kg) in order to induce a reversible bronchoconstruction response, measured by an increase of the pulmonary inflation pressure (PIP). This increase is recorded and it is considered to represent the basal value of the animal bronochoconstrictor response to the challenge with the autocoid.
The animal is then actively exposed for a 10 minutes time period to the tobacco smoke of alighted cigarette (directly inspired by the animal). Afterwards the animal is challenged again with the autocoid, using the dosage previously injected for evokating the basal bronchoconstrictor response. The novel challenge induces an exacerbate bronochoconstrictory response and the airway hyper-reactivity is measured as the differential increase in the PIP after tobacco smoke exposure in respect to the basal value. The challenge may be repeated in the time, (2-3 hours after smoke exposure, too) until reproducible hyper-reactive responses are obtained or at different time from tobacco exposure.
A substance may be administered by i.v., oral, subcutaneous or intramuscular route at different times before tobacco smoke exposure. A compound is considered effective when it is able to prevent almost completely the exacerbate differential increase in the PIP and normalize the BAL cell cytologic pattern at the same dose level.
Differential increases of the pulmonary inflation pressure over the basal value after autacoid challenges, ranging from 150-200% are observed after smoke exposure in the animal control group (i.e. in the absence of any pharmacological treatment).
Drug treatment may be performed using different routes: intravenous, oral, subcutaneous and/or intramuscular; the substances may be administered at different times before smoke exposure and at different dose levels.
Dose related responses have been determined for reference drugs such as 6β-methyl-prednisolone-21-hemisuccinate sodium salt (6MPHE, by i.m. route, 7 hrs. b.s.l.), sodium dichromoglycate (DSCG, by i.m. route, 2 hrs. b.s.e.) and salbutamol (by i.v. route, 20 minutes before smoke exposure); the results reported in table 4, are expressed as % protection from hyperreactive reaction. […]

A short description of series [2]: Acute toxicity (LD50) in rats, oral. To be noted: rat, in vivo, 14th day of observation, read-out: DL50. As for the experimental part: The compounds of the invention are therapeutically useful substances, practically free of acute, subacute or chronic toxic effects. LD50 values, usually exceeding 1 g/kg body weight are measured in mice and in rats after oral and intraperitoneal (i.p.) administration of the compounds of the invention. Only N-diethylaminoethylamino, N'-[(R,S)-2-(2-methoxyphenoxymethyl)-1,3-thiazolidine]-malondiamide and N-β-pyridylmethylamino-N'-[(R,S)-2-(2-methoxy-phenoxy-methyl)-1,3-thiazolidine]-malondiamide show DL50 values of 0.25 and 0.85 g/Kg respectively after oral administration to rats at the 14th day of observation.

Take `COc1ccccc1OCC1SCCN1C(=O)CC(=O)NCc1cccnc1` (racemic) [Table 5 3, N-β-pyridylmethyl, N'-[(R,S)-2-(2-methoxy-phenoxymethyl)-1,3-thiazolidine]-malondiamide]: in series [1], the “prevention/inhibition of airway hyperreactivity (words)” value is “effective inhibitors of the hyperreactive reaction”. Moreover, the LD50 at 336 h in series [2] worked out at 850 mg/kg.
